Reference: the supplement of paper PMC10627819

How the values were obtained:
S. aureus DSM 20231 [1] = assay: fitness (endpoint OD595 vs no drug) (fraction); higher = more growth
Procedure, shortened: (§1)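 Each well of a 384-well plate received 30 µl of culture at OD595 0.01, or 55 µl for S. pneumoniae. TSB, LB Lennox or CY served as media at 37 °C. OD595 was taken every 30 min for 14 h and corrected by subtracting the first reading. Fitness is the optical density at stationary-phase entry divided by the robust mean of no-drug controls, capped at 1.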

S. pneumoniae D39V [2] = assay: as above
Procedure, shortened: as §1

S. aureus Newman [3] = assay: as above
Procedure, shortened: as §1

B. subtilis 168 [4] = assay: as above
Procedure, shortened: as §1

S. aureus DSM 20231 [5] = assay: Bliss interaction score (quartile over a dose matrix) (fitness difference); higher = more antagonism (negative = synergy)
Procedure, shortened: (§2)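 At entry into stationary phase, OD595 was recorded and divided by the robust mean of the no-drug wells on that plate, with any value above 1 set to 1. This gives the fitness measure used throughout. Single-drug fitness was inferred from combination data, and the Bliss score, observed minus product-expected fitness, is shown as quartiles across technical, biological and donor/recipient replicates.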

S. pneumoniae D39V [6] = assay: as above
Procedure, shortened: as §2

S. aureus Newman [7] = assay: as above
Procedure, shortened: as §2

B. subtilis 168 [8] = assay: as above
Procedure, shortened: as §2
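Throughout, for Bliss interaction score (quartile over a dose matrix): first quartile when negative (synergy) and third quartile when positive (antagonism).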

O=C(O[C@@H]1Cc2c(O)cc(O)cc2O[C@@H]1c1cc(O)c(O)c(O)c1)c1cc(O)c(O)c(O)c1 [EGCG] + CN(N=O)C(=O)N[C@@H](C=O)[C@@H](O)[C@H](O)[C@H](O)CO [Streptozotocin]
fitness
Conditions | first compound 6.25 µg/mL | first compound 12.5 µg/mL | first compound 25 µg/mL | first compound 50 µg/mL
B. subtilis 168 [4], partner 0.15 µg/mL | 0.913 | 0.571 | – | –
B. subtilis 168 [4], partner 0.3 µg/mL | 0.856 | 0.62 | 0.449 | –
B. subtilis 168 [4], partner 0.6 µg/mL | 0.915 | 0.515 | 0.391 | –
S. aureus DSM 20231 [1], partner 0.15 µg/mL | – | 0.763 | 0.702 | 0.683
S. aureus DSM 20231 [1], partner 0.3 µg/mL | – | 0.643 | 0.635 | 0.658
S. aureus DSM 20231 [1], partner 0.6 µg/mL | – | 0.597 | 0.595 | 0.499
S. aureus Newman [3], partner 0.15 µg/mL | – | 0.711 | 0.804 | 0.783
S. aureus Newman [3], partner 0.3 µg/mL | – | 0.737 | 0.477 | 0.752
S. aureus Newman [3], partner 0.6 µg/mL | – | 0.404 | 0.416 | 0.572
S. pneumoniae D39V [2], partner 1.2 µg/mL | – | 0.911 | 0.947 | 0.919
S. pneumoniae D39V [2], partner 2.4 µg/mL | – | 0.891 | 0.935 | 0.91
S. pneumoniae D39V [2], partner 4.8 µg/mL | – | 0.907 | ≥ 1 | ≥ 1

Conditions | Bliss interaction score
B. subtilis 168 [8] | -0.0853
S. aureus DSM 20231 [5] | -0.0464
S. aureus Newman [7] | -0.0449
S. pneumoniae D39V [6] | 0.0662

O=C(O[C@@H]1Cc2c(O)cc(O)cc2O[C@@H]1c1cc(O)c(O)c(O)c1)c1cc(O)c(O)c(O)c1 [EGCG] + CN[C@@H]1[C@H](O)[C@H](NC)[C@H]2O[C@@]3(O)C(=O)C[C@@H](C)O[C@H]3O[C@@H]2[C@H]1O [Spectinomycin]
fitness
Conditions | B. subtilis 168 [4] | S. aureus DSM 20231 [1] | S. aureus Newman [3] | S. pneumoniae D39V [2]
first compound 6.25 µg/mL, partner 2 µg/mL | 0.919 | – | – | –
first compound 6.25 µg/mL, partner 4 µg/mL | 0.959 | – | – | –
first compound 6.25 µg/mL, partner 8 µg/mL | 0.942 | – | – | –
first compound 12.5 µg/mL, partner 4 µg/mL | – | 0.716 | 0.775 | 0.918
first compound 12.5 µg/mL, partner 8 µg/mL | 0.755 | 0.841 | 0.825 | 0.892
first compound 12.5 µg/mL, partner 16 µg/mL | – | 0.783 | 0.783 | 0.662
first compound 25 µg/mL, partner 4 µg/mL | – | 0.795 | 0.631 | 0.884
first compound 25 µg/mL, partner 8 µg/mL | 0.351 | 0.829 | 0.784 | 0.858
first compound 25 µg/mL, partner 16 µg/mL | – | 0.696 | – | 0.692
first compound 50 µg/mL, partner 4 µg/mL | – | 0.762 | – | 0.928
first compound 50 µg/mL, partner 8 µg/mL | – | 0.778 | 0.748 | 0.942
first compound 50 µg/mL, partner 16 µg/mL | – | 0.724 | – | –

fitness, one replicate
Conditions | first compound 12.5 µg/mL | first compound 25 µg/mL | first compound 50 µg/mL
S. aureus DSM 20231 [1], partner 32 µg/mL | 0.732 | 0.693 | 0.556
S. aureus DSM 20231 [1], partner 64 µg/mL | 0.118 | 0.0939 | 0.028
S. aureus Newman [3], partner 32 µg/mL | 0.385 | 0.167 | 0.0466
S. aureus Newman [3], partner 64 µg/mL | 0.0419 | 0.0446 | 0.0186

Conditions | Bliss interaction score
B. subtilis 168 [8] | -0.0513
S. aureus DSM 20231 [5] | -0.0655
S. aureus Newman [7] | -0.0777
S. pneumoniae D39V [6] | -0.0456
